Patent publication EP3072956A1, “Selective culture medium for polymyxin-resistant, gram-negative bacteria” (priority 2015, dated 2016)

How the values were obtained:
Experiment in all cases: MIC determination by broth microdilution (MHB-CA, CLSI)
Type in all cases: cell-based
P. vulgaris = details: strain Pvul
Procedure: (§1) Determination of MIC values were performed by broth microdilution in Cation-Adjusted Mueller-Hinton broth (MHB-CA) according to the CLSI guidelines (Clinical and Laboratory Standards Institute). Polymyxin B and colistin (Sigma-Aldrich, Saint-Louis) were tested with or without Tween 80 over a range dilution from 0.12 to 128 µg/ml. The surfactant Tween 80, at a final concentration of 0.002%, prevents the binding of polymyxins to multi-array plastic panel. Actually, the use of Tween for determination of MIC of polymyxins is still debatable. MHB-CA broth and 5.10^5 CFU/ml of each tested strain were distributed in each well. Following the EUCAST breakpoints, strains were characterized as susceptible or resistant to polymyxins.

H. alvei = details: strain ER
Procedure: as §1

P. stuartii = details: strain Pstu
Procedure: as §1

S. maltophilia = test system: S. maltophilia
Procedure: as §1

P. mirabilis = details: strain Pmir
Procedure: as §1

S. marcescens = details: strain Smar
Procedure: as §1

E. aerogenes = details: strain 36F8
Procedure: as §1

E. coli = test system: E. coli
Procedure: as §1

P. aeruginosa = test system: P. aeruginosa
Procedure: as §1

A. baumannii = test system: A. baumannii
Procedure: as §1

B. cepacia = details: strain Bcep
Procedure: as §1

K. pneumoniae = test system: K. pneumoniae
Procedure: as §1

M. morganii = details: strain Mmor
Procedure: as §1

E. cloacae = test system: E. cloacae
Procedure: as §1

colistin
MIC (P. vulgaris; With Tween80): >128 µg/mL
MIC (P. vulgaris; Without Tween80): >128 µg/mL
MIC (H. alvei; With Tween80): 16 µg/mL
MIC (H. alvei; Without Tween80): 16 µg/mL
MIC (P. stuartii; With Tween80): >128 µg/mL
MIC (P. stuartii; Without Tween80): >128 µg/mL
MIC (S. maltophilia; strain Sm2, With Tween80): >128 µg/mL
MIC (S. maltophilia; strain Sm2, Without Tween80): >128 µg/mL
MIC (S. maltophilia; strain SmA51, With Tween80): 16 µg/mL
MIC (S. maltophilia; strain SmA51, Without Tween80): 32 µg/mL
MIC (P. mirabilis; With Tween80): >128 µg/mL
MIC (P. mirabilis; Without Tween80): >128 µg/mL
MIC (S. marcescens; With Tween80): >128 µg/mL
MIC (S. marcescens; Without Tween80): >128 µg/mL
MIC (E. aerogenes; With Tween80): 0.12 µg/mL
MIC (E. aerogenes; Without Tween80): 0.12 µg/mL
MIC (E. coli; strain 36A6, With Tween80): 0.12 µg/mL
MIC (E. coli; strain 36A6, Without Tween80): 0.12 µg/mL
MIC (E. coli; strain 36D7, With Tween80): 0.12 µg/mL
MIC (E. coli; strain 36D7, Without Tween80): 0.25 µg/mL
MIC (E. coli; strain 38D6, With Tween80): 0.12 µg/mL
MIC (E. coli; strain 38D6, Without Tween80): 0.25 µg/mL
MIC (E. coli; strain 27563, With Tween80): 8 µg/mL
MIC (E. coli; strain 27563, Without Tween80): 16 µg/mL
MIC (E. coli; strain 27837, With Tween80): 8 µg/mL
MIC (E. coli; strain 27837, Without Tween80): 16 µg/mL
MIC (E. coli; strain 27850, With Tween80): 8 µg/mL
MIC (E. coli; strain 27850, Without Tween80): 16 µg/mL
MIC (E. coli; strain 27852, With Tween80): 8 µg/mL
MIC (E. coli; strain 27852, Without Tween80): 8 µg/mL
MIC (E. coli; strain 28509, With Tween80): 4 µg/mL
MIC (E. coli; strain 28509, Without Tween80): 4 µg/mL
MIC (E. coli; strain 30742, With Tween80): 4 µg/mL
MIC (E. coli; strain 30742, Without Tween80): 8 µg/mL
MIC (E. coli; strain ATCC 25922, With Tween80): 0.12 µg/mL
MIC (E. coli; strain ATCC 25922, Without Tween80): 0.25 µg/mL
MIC (E. coli; strain C140, With Tween80): 0.12 µg/mL
MIC (E. coli; strain C140, Without Tween80): 0.12 µg/mL
MIC (E. coli; strain Eco OmpC-OmpF-, With Tween80): 0.12 µg/mL
MIC (E. coli; strain Eco OmpC-OmpF-, Without Tween80): 0.12 µg/mL
MIC (P. aeruginosa; strain 38J8, With Tween80): 0.5 µg/mL
MIC (P. aeruginosa; strain 38J8, Without Tween80): 2 µg/mL
MIC (P. aeruginosa; strain ATCC 27853, With Tween80): 0.12 µg/mL
MIC (P. aeruginosa; strain ATCC 27853, Without Tween80): 0.5 µg/mL
MIC (P. aeruginosa; strain C111, With Tween80): 0.12 µg/mL
MIC (P. aeruginosa; strain C111, Without Tween80): 1 µg/mL
MIC (P. aeruginosa; strain C131, With Tween80): 0.25 µg/mL
MIC (P. aeruginosa; strain C131, Without Tween80): 1 µg/mL
MIC (P. aeruginosa; strain C133, With Tween80): 0.5 µg/mL
MIC (P. aeruginosa; strain C133, Without Tween80): 2 µg/mL
MIC (A. baumannii; strain 38B9, With Tween80): 0.25 µg/mL
MIC (A. baumannii; strain 38B9, Without Tween80): 0.5 µg/mL
MIC (A. baumannii; strain Aba6, With Tween80): 128 µg/mL
MIC (A. baumannii; strain Aba6, Without Tween80): 128 µg/mL
MIC (A. baumannii; strain C105, With Tween80): 0.12 µg/mL
MIC (A. baumannii; strain C105, Without Tween80): 0.5 µg/mL
MIC (B. cepacia; With Tween80): >128 µg/mL
MIC (B. cepacia; Without Tween80): >128 µg/mL
MIC (K. pneumoniae; strain 12E2, With Tween80): 64 µg/mL
MIC (K. pneumoniae; strain 12E2, Without Tween80): 64 µg/mL
MIC (K. pneumoniae; strain 13G2, With Tween80): 32 µg/mL
MIC (K. pneumoniae; strain 13G2, Without Tween80): 64 µg/mL
MIC (K. pneumoniae; strain 18J1, With Tween80): 32 µg/mL
MIC (K. pneumoniae; strain 18J1, Without Tween80): 32 µg/mL
MIC (K. pneumoniae; strain 36A4, With Tween80): 0.12 µg/mL
MIC (K. pneumoniae; strain 36A4, Without Tween80): 0.12 µg/mL
MIC (K. pneumoniae; strain 36A5, With Tween80): 0.12 µg/mL
MIC (K. pneumoniae; strain 36A5, Without Tween80): 0.12 µg/mL
MIC (K. pneumoniae; strain 36A7, With Tween80): 0.12 µg/mL
MIC (K. pneumoniae; strain 36A7, Without Tween80): 0.25 µg/mL
MIC (K. pneumoniae; strain 38B7, With Tween80): 0.12 µg/mL
MIC (K. pneumoniae; strain 38B7, Without Tween80): 0.5 µg/mL
MIC (K. pneumoniae; strain 75b, With Tween80): 128 µg/mL
MIC (K. pneumoniae; strain 75b, Without Tween80): 128 µg/mL
MIC (K. pneumoniae; strain 1118, With Tween80): 64 µg/mL
MIC (K. pneumoniae; strain 1118, Without Tween80): 64 µg/mL
MIC (K. pneumoniae; strain 1515, With Tween80): 32 µg/mL
MIC (K. pneumoniae; strain 1515, Without Tween80): 64 µg/mL
MIC (K. pneumoniae; strain AF1b, With Tween80): 16 µg/mL
MIC (K. pneumoniae; strain AF1b, Without Tween80): 16 µg/mL
MIC (K. pneumoniae; strain BICb, With Tween80): >128 µg/mL
MIC (K. pneumoniae; strain BICb, Without Tween80): >128 µg/mL
MIC (K. pneumoniae; strain C1, With Tween80): 128 µg/mL
MIC (K. pneumoniae; strain C1, Without Tween80): 128 µg/mL
MIC (K. pneumoniae; strain C3, With Tween80): 32 µg/mL
MIC (K. pneumoniae; strain C3, Without Tween80): 32 µg/mL
MIC (K. pneumoniae; strain C7, With Tween80): >128 µg/mL
MIC (K. pneumoniae; strain C7, Without Tween80): >128 µg/mL
MIC (K. pneumoniae; strain C11, With Tween80): 128 µg/mL
MIC (K. pneumoniae; strain C11, Without Tween80): 64 µg/mL
MIC (K. pneumoniae; strain C12, With Tween80): 64 µg/mL
MIC (K. pneumoniae; strain C12, Without Tween80): 64 µg/mL
MIC (K. pneumoniae; strain C16, With Tween80): 64 µg/mL
MIC (K. pneumoniae; strain C16, Without Tween80): 64 µg/mL
MIC (K. pneumoniae; strain C21, With Tween80): 128 µg/mL
MIC (K. pneumoniae; strain C21, Without Tween80): 128 µg/mL
MIC (K. pneumoniae; strain C22, With Tween80): 64 µg/mL
MIC (K. pneumoniae; strain C22, Without Tween80): 32 µg/mL
MIC (K. pneumoniae; strain C25, With Tween80): 32 µg/mL
MIC (K. pneumoniae; strain C25, Without Tween80): 64 µg/mL
MIC (K. pneumoniae; strain C26, With Tween80): 128 µg/mL
MIC (K. pneumoniae; strain C26, Without Tween80): 128 µg/mL
MIC (K. pneumoniae; strain C27, With Tween80): >128 µg/mL
MIC (K. pneumoniae; strain C27, Without Tween80): >128 µg/mL
MIC (K. pneumoniae; strain C112, With Tween80): 0.12 µg/mL
MIC (K. pneumoniae; strain C112, Without Tween80): 0.5 µg/mL
MIC (K. pneumoniae; strain C115, With Tween80): 0.12 µg/mL
MIC (K. pneumoniae; strain C115, Without Tween80): 0.12 µg/mL
MIC (K. pneumoniae; strain C130, With Tween80): 0.12 µg/mL
MIC (K. pneumoniae; strain C130, Without Tween80): 0.5 µg/mL
MIC (K. pneumoniae; strain C132, With Tween80): 0.12 µg/mL
MIC (K. pneumoniae; strain C132, Without Tween80): 0.12 µg/mL
MIC (K. pneumoniae; strain Kp OmpK3 5-OmpK3 6-, With Tween80): 0.12 µg/mL
MIC (K. pneumoniae; strain Kp OmpK3 5-OmpK3 6-, Without Tween80): 0.12 µg/mL
MIC (K. pneumoniae; strain Sa, With Tween80): >128 µg/mL
MIC (K. pneumoniae; strain Sa, Without Tween80): 128 µg/mL
MIC (K. pneumoniae; strain T1b, With Tween80): 128 µg/mL
MIC (K. pneumoniae; strain T1b, Without Tween80): 128 µg/mL
MIC (K. pneumoniae; strain T4, With Tween80): 64 µg/mL
MIC (K. pneumoniae; strain T4, Without Tween80): 64 µg/mL
MIC (K. pneumoniae; strain T5, With Tween80): 64 µg/mL
MIC (K. pneumoniae; strain T5, Without Tween80): 32 µg/mL
MIC (M. morganii; With Tween80): >128 µg/mL
MIC (M. morganii; Without Tween80): >128 µg/mL
MIC (E. cloacae; strain 38A10, With Tween80): 0.12 µg/mL
MIC (E. cloacae; strain 38A10, Without Tween80): 0.12 µg/mL
MIC (E. cloacae; strain C28, With Tween80): 32 µg/mL
MIC (E. cloacae; strain C28, Without Tween80): 32 µg/mL
MIC (E. cloacae; strain C129, With Tween80): 0.12 µg/mL
MIC (E. cloacae; strain C129, Without Tween80): 0.12 µg/mL
MIC (E. cloacae; strain C144, With Tween80): 0.12 µg/mL
MIC (E. cloacae; strain C144, Without Tween80): 0.12 µg/mL
MIC (E. cloacae; strain HM, With Tween80): >128 µg/mL
MIC (E. cloacae; strain HM, Without Tween80): >128 µg/mL
